Measured values reported in article PMC11427369 (Frontiers in Pharmacology, 2024).

Experiments:
C2IIa = C2IIa (Clostridium botulinum, UniProt O86171); format: biochemical
PA63 = target: T1, PA63 (Bacillus anthracis, UniProt P13423); format: biochemical
T1 construct: gene pagA
T1 sequence (P13423 197-764 limits assumed): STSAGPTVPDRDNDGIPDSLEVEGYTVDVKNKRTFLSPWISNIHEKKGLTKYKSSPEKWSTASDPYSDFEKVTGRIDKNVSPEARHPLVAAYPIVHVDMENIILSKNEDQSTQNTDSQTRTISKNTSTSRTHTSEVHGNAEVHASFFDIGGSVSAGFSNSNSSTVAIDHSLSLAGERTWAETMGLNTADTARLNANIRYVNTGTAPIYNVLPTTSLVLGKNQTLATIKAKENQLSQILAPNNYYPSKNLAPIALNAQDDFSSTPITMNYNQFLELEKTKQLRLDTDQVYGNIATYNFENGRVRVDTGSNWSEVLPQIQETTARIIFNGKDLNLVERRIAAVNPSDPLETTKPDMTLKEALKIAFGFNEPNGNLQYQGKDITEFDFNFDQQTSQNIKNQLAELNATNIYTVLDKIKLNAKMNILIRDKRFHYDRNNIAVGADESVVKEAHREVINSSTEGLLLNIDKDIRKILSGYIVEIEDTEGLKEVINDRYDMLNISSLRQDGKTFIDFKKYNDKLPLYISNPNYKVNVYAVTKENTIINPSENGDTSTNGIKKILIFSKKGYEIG

Chain of C2IIa (O86171 182-721 limits assumed): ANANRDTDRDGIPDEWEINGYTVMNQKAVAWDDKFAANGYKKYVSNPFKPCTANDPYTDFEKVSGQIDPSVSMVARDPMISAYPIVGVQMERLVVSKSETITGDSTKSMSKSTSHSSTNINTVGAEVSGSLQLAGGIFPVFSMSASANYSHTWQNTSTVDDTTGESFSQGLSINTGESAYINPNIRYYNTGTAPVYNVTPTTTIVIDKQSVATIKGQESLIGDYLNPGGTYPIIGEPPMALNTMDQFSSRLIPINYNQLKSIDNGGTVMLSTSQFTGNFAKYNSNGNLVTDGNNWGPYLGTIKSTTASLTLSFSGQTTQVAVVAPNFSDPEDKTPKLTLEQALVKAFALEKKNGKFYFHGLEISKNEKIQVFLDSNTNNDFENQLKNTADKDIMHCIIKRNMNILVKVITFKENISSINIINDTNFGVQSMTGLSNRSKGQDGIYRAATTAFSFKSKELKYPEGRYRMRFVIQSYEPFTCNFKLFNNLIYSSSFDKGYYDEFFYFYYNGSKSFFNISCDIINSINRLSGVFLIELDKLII

Structure (SMILES): CCN(CC)C(=S)SSC(=S)N(CC)CC [disulfiram]
- pore conductance block, planar lipid bilayer (C2IIa): addition of DSF led to an immediate block of any current flowing
- pore conductance block, planar lipid bilayer (PA63): addition of DSF immediately blocked any current flow, leading to zero level of conductance
